Experimental findings from patent publication US5424334A, “Peptide mimetic compounds useful as platelet aggregation inhibitors” (G. D. Searle & Co., priority 1991, dated 1995) are described below.

Counter-ions that a name gives are not always drawn.

The subject of the experiment is Dog PRP (platelet aggregation). Kind of experiment: In-vitro platelet aggregation in PRP (ADP-induced). It counts as cell-based. To be noted: Canis lupus familiaris, adenosine 5'diphosphate (ADP) induced, by linear regression of dose response curve. The method, then: In-Vitro Platelet Aggregation in PRP
Healthy male or female dogs were fasted for 8 hours prior to drawing blood; then 30 ml whole blood was collected using a butterfly needle and 30 cc plastic syringe with 3 ml of 0.129M buffered sodium citrate (3.8%). The syringe was rotated carefully as blood was drawn to mix the citrate. Platelet-rich plasma (PRP) was prepared by centrifugation at 975× g for 3.17 minutes at room temperature, allowing the centrifuge to coast to a stop without braking. The PRP was removed from the blood with a plastic pipette and placed in a plastic capped, 50 ml Corning conical sterile centrifuge tube which was held at room temperature. Platelet poor plasma (PPP) was prepared by centrifuging the remaining blood at 2000× g for 15 minutes at room temperature allowing the centrifuge to coast to a stop without braking. The PRP was adjusted with PPP to a count of 2-3×10^8 platelets per ml. 400 μl of the PRP preparation and 50 μl of the compound to be tested or saline were preincubated for 1 minute at 37° C. in a BioData aggregometer (BioData, Horsham, Pa.). 50 μl of adenosine 5'diphosphate (ADP) (50 μm final concentration) was added to the cuvettes and the aggregation was monitored for 1 minute. All compounds are tested in duplicate. Results are calculated as follows:
Percent of control=[(maximal OD minus initial OD of compound) divided by (maximal OD minus initial OD of control saline)]×100. The % inhibition=100-(percent of control).
In Table A, two readings given in a single box indicate that two trials, rather than a single trial, were run for that particular compound in that particular assay.

One may read the IC50 as the concentration at which inhibition is half-maximal. The low end stands for higher potency, the high end for lower potency. Compound `N=C(N)c1ccc(CCCCNC(=O)[C@@H](CC(=O)O)NC(=O)OCc2ccccc2)cc1` [Compound 52513, 4-[[4-[4-(aminoiminomethyl)phenyl]butyl]amino]-4-oxo-3(R)-[[(Phenylmethoxy)carbonyl]amino]butanoic acid] gave a 50% inhibitory concentration (IC50) of 3 µM.

The compound `N=C(N)c1ccc(CCCCNC(=O)[C@@H](CCC(=O)O)NC(=O)OCc2ccccc2)cc1` [Compound 52809, 5-[[4-[4-(aminoiminomethyl)phenyl]butyl]amino]-5-oxo-4(R)-[[(phenylmethoxy)carbonyl]amino]pentanoic acid] yielded a concentration for half-maximal inhibition (IC50) of 1.8 µM.

Take `N=C(N)c1ccc(CCCCNC(=O)[C@H](CCC(=O)O)NC(=O)OCc2ccccc2)cc1` [Compound 52828, 5-[[4-[4-(aminoiminomethyl)phenyl]butyl]amino]-5-oxo-4(S)-[[(phenylmethoxy)carbonyl]amino]pentanoic acid]: the IC50 came out at 4.2 µM.

`Cc1ccc(S(=O)(=O)N[C@H](CC(=O)O)C(=O)NCCCCc2ccc(C(=N)N)cc2)cc1` [Compound 53010, 4-[[4-[4-(aminoiminomethyl)phenyl]butyl]amino]-4-oxo-3R-[[(4-methylphenyl)sulfonyl]amino]butanoic acid] yielded an IC50 of 6 µM.

Regarding `CCOC(=O)CC[C@@H](NC(=O)OCc1ccccc1)C(=O)NCCCCc1ccc(C(=N)N)cc1` [Compound 53033, ethyl 5-[[4-[4-(aminoiminomethyl)phenyl]butyl]amino]-5-oxo-4R-[[(phenylmethoxy)carbonyl]amino]pentanoate, monohydrochloride], the IC50 was determined as 7 µM.

In the case of `CS(=O)(=O)N[C@H](CCC(=O)O)C(=O)NCCCCc1ccc(C(=N)N)cc1` [Compound 53065, 5-[[4-[4-(aminoiminomethyl)phenyl]butyl]amino]-5-oxo-4(R)-methylsulfonylaminopentanoic acid], the half-maximal inhibitory concentration (IC50) is 3.5 µM.

In turn, `N=C(N)c1ccc(CCCCNC(=O)[C@H](CCC(=O)O)NC(=O)CCc2ccccc2)cc1` [Compound 53112, 5-[[4-[4-(aminoiminomethyl)phenyl]butyl]amino]-5-oxo-4S-[1-oxo-3-phenylpropylamino]pentanoic acid] showed an IC50 of 1.9 µM.

Take `N=C(N)c1ccc(CCCCNC(=O)[C@@H](CC(=O)O)NC(=O)CCc2ccccc2)cc1` [Compound 53143, 4-[[4-[4-(aminoiminomethyl)phenyl]butyl]amino]-4-oxo-3R-[(1-oxo-3-phenylpropyl)amino]butanoic acid]: the IC50 amounted to 4.1 µM.

On to `N=C(N)c1ccc(C#CCCCNC(=O)[C@@H](CCC(=O)O)NC(=O)OCc2ccccc2)cc1` [Compound 53314, 5-[[5-[4-(aminoiminomethyl)phenyl]-4-pentynyl]amino]-5-oxo-4R-[[(phenylmethoxy)carbonyl]amino]pentanoic acid], for which the IC50 was determined as 2 µM.
